Measured values: patent publication US20230173090A1, “COMPOSITIONS AND METHODS FOR MODULATING DOPAMINE RECEPTOR ACTIVITY” (The Regents of the University of California, priority 2020, published 2023)

Columns and labels:
D1R = biological target: T1, D1R (Homo sapiens, UniProt P21728); assay: D1R-mediated GIRK channel activation assay in HEK293T cells (whole-cell electrophysiology); type: cell-based; conditions: % of photocurrent in the absence of LE300
T1 construct: expressed in transfected cells; host or cells: HEK293T (A1, A2); HEK293 (A26)
T1 sequence (P21728 whole entry): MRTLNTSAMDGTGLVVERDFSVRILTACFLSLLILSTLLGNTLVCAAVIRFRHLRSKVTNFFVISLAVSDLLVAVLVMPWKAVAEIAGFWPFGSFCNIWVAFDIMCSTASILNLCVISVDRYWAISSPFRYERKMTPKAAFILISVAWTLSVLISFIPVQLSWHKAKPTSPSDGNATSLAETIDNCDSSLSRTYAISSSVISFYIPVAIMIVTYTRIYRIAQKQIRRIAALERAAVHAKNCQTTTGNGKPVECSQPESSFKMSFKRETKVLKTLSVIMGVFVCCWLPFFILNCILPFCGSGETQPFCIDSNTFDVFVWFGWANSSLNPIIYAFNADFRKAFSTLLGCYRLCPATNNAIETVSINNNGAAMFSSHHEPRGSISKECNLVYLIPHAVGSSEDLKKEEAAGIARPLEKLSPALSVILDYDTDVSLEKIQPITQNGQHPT
Procedure: All constructs were cloned into mammalian expression vectors. For the receptor mediated-GIRK activation assay, HEK293T cells were seeded onto 18 mm coverslips and transiently transfected overnight with Lipofectamine 2000 and the following constructs: a receptor, a variant of the membrane-anchor (M; 0.7 µg), GIRK1(F137S) (0.7 µg), and tdTomato (0.2 µg). […] D1R, D5R, or opto-D1R were cotransfected with Gαis13 (0.35 µg), D3R with GαoA (0.7 µg), and M1R or mGluR1 with Gαiq5. Transfected cells were used for electrophysiology, imaging, or flow cytometry experiments.
HEK293T cells were sparsely seeded and maintained in DMEM (Invitrogen) with 10% fetal bovine serum on poly-L-lysine-coated coverslips at 37° C. and 5% CO2. HEK293T cells were voltage clamped in whole-cell configuration 16-48 hours after transfection. […] GluK2 electrophysiology was performed in the presence of 0.3 mg/mL concanavalin A to prevent desensitization. […] Cells were voltage clamped to -60 or -80 mV using an Axopatch 200A (Molecular Devices) amplifier.
For all experiments, compounds were applied using a gravity-driven perfusion system and illumination was applied to the entire field of view using a Polychrome V monochromator (TILL Photonics) through a 20x objective (maximum 0.05 mW/mm^2 at 370 nm and 0.5 mW/mm^2 at 460 nm or 473 nm) or a DG4 (Sutter) through a 20x objective (maximum 0.06 mW/mm^2 at 370 nm and 0.6 mW/mm^2 at 445 nm). pClamp software was used for both data acquisition and control of illumination.
The selection criteria for electrophysiological experiments are that a cell (i) expresses the fluorescent protein transfection marker, and (ii) responds to agonist, indicating the presence of either receptor and GIRK or an LGIC. Cells were not excluded unless the recording was of poor quality (e.g., unstable baseline).
Data were analyzed using GraphPad Prism (GraphPad), Clampfit (Axon instruments), Origin (OriginLab), MATLAB, or ImageJ software. For dose-response curves, data were normalized to vehicle (0%) and DA (100%) and nonlinear regression analysis was performed using the sigmoidal dose-response function in GraphPad Prism. Statistical analyses were performed using GraphPad Prism. All values reported are mean ± S.E.M.
FIGS. 9A-9H. Functional properties of untethered P-D1ago. (A) Schematic representation of a D1R-mediated G protein-coupled inwardly rectifying potassium (GIRK) channel assay in HEK293T cells. Agonist-induced receptor activation results in the recruitment of a heterotrimeric G protein containing the chimeric Gα subunit (Gαis) followed by the release of Gβγ, which activates GIRK channels and enhances inward-current. […] (E) Schematic representation of a highly sensitive D1R-mediated cAMP accumulation assay in HEK293T cells. Agonist-induced D1R activation results in Gs/olfrecruitment followed by the binding of its Gα subunit to adenylate cyclase (AC), which enhances the conversion of ATP to cAMP. cAMP binds the bioluminescence resonance energy transfer 1 (BRET′)-based cAMP sensor CAMYEL^87, resulting in a conformational change in its Epac domain that increases the distance and decreases BRET^1 between the donor Renilla luciferase (Rluc) and the acceptor YFP. […] Optimization and characterization of the D1R MP

D1R and D5R = assay: Open field test, bilateral dStr-infusion of SKF82958 in D1-Cre mice; type: in vivo
Procedure: FIGS. 21A-21K. […] (A) An infusion of SKF82958 directly to the dorsal striatum (dStr) activates D1R and D5R in various cell types of this brain area and could diffuse into other brain areas. (B) Time course of the effect of a bilateral dStr-infusion of SKF82958 (400 nL per hemisphere) on the locomotion of D1-Cre mice in an open field. (C) Average velocity in the last 10 minutes of the open field test. one-way ANOVA, F = 14.3, Bonferroni, ^∗∗p < 0.01, ^∗∗∗p < 0.001. n = 5 mice per condition. (D) Time to maximum locomotion with SKF82958 or MP-D1ago. unpaired two-sided t-test, ^∗∗∗∗p < 0.0001. n = 5 for SKF82958, n = 7 mice for MP-D1ago. (E) Example movement dynamics of a mouse treated with vehicle or 100 µg SKF82958. Shown for SKF82958-treated mice is the (F) average percent of the time in motion, (G) average initiations per second, (H) average movement bout duration, and (I) the average maximum movement bout velocity. […] Bonferroni, ^∗p < 0.05, ^∗∗p < 0.01. n = 5 mice. (J) Representative coronal brain slice from a mouse infused with SKF82958. grey bar = 1 mm. blue = DAPI staining. (K) Summary of cannula locations for individual mice.

Row | photoactivation of D1R by P-D1ago tethered to the M in the presence of LE300 (D1R) | SMILES | duration of the movement bouts (D1R and D5R) | movement initiation (D1R and D5R) | percentage of the time in motion (D1R and D5R) | locomotion in an open field (D1R and D5R; 400 nL per hemisphere)
1 | 3.3 ± 3.3% | CN1CCc2ccccc2Cc2[nH]c3ccccc3c2CC1 [LE300, reference compound] |  |  |  | 
2 |  | C=CCN1CCc2c(cc(O)c(O)c2Cl)C(c2ccccc2)C1 (centres unmarked) [SKF82958] | increased | increased | increased the percentage of the time that the mice were in motion | enhanced locomotion
